For test [1], the target named is T1, Histone-arginine methyltransferase CARM1 (Homo sapiens, UniProt Q86X55).
T1 sequence (Q86X55 whole entry): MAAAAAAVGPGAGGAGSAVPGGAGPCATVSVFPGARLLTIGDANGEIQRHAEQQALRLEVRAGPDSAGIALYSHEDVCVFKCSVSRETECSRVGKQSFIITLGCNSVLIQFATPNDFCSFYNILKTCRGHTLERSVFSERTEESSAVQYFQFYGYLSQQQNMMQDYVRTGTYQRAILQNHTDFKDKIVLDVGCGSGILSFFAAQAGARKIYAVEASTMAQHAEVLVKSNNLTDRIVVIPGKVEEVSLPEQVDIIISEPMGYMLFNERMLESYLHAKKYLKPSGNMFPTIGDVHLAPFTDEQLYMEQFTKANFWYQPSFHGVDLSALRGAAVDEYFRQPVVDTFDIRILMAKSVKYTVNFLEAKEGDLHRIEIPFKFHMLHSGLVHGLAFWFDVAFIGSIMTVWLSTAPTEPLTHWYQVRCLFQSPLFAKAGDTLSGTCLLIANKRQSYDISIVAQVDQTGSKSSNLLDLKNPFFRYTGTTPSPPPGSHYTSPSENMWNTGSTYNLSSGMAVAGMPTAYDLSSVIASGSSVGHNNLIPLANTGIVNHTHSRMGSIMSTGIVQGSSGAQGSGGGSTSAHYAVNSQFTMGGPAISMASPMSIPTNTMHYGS
Description: Inhibition of CARM1 (unknown origin)

Test [2] addresses Protein arginine N-methyltransferase 3 (Homo sapiens, UniProt O60678). Briefly: Inhibition of PRMT3 (unknown origin).
The target in test [3] is Protein arginine N-methyltransferase 6 (Homo sapiens, UniProt Q96LA8). Briefly: Inhibition of PRMT6 (unknown origin).
Test [4] deals with Protein arginine N-methyltransferase 8 (Homo sapiens, UniProt Q9NR22). The test is described as follows: Inhibition of PRMT8 (unknown origin).
Test [5] addresses Protein arginine N-methyltransferase 5 (Homo sapiens, UniProt O14744). The test is described as follows: Inhibition of PRMT5 (unknown origin).
Test [6] has as its target T2, Protein arginine N-methyltransferase 7 (Homo sapiens, UniProt Q9NVM4).
T2 sequence (Q9NVM4 whole entry): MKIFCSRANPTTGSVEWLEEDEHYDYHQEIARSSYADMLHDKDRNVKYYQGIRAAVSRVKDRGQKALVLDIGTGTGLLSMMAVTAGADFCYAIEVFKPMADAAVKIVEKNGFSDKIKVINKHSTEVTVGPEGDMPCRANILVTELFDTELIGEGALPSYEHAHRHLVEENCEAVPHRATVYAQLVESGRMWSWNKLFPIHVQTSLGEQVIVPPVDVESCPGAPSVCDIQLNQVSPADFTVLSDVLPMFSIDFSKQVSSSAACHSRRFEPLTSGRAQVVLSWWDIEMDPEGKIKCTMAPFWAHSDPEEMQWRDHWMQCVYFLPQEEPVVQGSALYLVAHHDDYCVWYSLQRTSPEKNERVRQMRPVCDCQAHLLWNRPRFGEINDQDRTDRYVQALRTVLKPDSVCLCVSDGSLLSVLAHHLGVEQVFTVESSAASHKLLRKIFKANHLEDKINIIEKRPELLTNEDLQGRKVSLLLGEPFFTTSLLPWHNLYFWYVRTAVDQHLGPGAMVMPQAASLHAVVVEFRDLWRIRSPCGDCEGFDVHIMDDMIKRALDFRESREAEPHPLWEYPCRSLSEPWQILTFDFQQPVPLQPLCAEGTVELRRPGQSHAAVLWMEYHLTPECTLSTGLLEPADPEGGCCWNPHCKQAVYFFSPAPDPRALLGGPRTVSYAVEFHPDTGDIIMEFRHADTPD
Briefly: Inhibition of PRMT7 (unknown origin).

One may read the IC50 as the concentration needed to halve the response being measured. A low value points to inhibition by little substance.

Sequence of Protein arginine N-methyltransferase 6 (Q96LA8 whole entry): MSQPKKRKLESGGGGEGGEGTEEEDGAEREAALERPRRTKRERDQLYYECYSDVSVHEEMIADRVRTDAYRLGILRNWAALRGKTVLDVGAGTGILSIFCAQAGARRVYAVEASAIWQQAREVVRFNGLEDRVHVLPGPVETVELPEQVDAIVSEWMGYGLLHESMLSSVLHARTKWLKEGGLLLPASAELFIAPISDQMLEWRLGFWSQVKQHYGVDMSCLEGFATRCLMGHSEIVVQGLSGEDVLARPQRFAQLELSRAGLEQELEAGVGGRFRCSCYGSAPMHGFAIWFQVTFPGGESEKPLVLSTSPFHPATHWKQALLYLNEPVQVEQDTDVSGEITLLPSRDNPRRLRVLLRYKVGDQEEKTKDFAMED
Sequence of Protein arginine N-methyltransferase 3 (O60678 whole entry): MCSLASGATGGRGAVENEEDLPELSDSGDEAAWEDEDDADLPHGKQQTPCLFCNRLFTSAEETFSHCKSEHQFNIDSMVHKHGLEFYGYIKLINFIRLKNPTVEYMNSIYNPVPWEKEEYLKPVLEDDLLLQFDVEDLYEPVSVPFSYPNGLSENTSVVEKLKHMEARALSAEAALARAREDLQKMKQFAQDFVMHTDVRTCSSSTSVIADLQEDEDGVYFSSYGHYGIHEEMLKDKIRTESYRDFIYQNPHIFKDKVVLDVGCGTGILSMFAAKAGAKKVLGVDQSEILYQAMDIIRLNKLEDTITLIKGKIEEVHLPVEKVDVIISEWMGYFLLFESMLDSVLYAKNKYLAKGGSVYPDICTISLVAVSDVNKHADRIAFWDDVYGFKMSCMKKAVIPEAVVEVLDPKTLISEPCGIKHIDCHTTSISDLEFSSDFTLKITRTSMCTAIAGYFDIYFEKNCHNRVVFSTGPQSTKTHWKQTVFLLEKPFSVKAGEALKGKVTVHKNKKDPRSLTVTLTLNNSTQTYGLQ
Sequence of Protein arginine N-methyltransferase 8 (Q9NR22 whole entry): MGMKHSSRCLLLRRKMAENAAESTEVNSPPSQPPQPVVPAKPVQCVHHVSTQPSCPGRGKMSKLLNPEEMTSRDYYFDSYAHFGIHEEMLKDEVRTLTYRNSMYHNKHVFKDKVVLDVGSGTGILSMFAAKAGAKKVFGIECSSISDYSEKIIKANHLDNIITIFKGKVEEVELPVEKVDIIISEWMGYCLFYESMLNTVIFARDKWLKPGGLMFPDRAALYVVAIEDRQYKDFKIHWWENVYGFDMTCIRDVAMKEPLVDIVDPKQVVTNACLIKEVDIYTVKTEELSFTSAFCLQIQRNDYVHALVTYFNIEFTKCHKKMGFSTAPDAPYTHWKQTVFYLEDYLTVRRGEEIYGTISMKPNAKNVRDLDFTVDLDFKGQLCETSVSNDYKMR
Sequence of Protein arginine N-methyltransferase 5 (O14744 whole entry): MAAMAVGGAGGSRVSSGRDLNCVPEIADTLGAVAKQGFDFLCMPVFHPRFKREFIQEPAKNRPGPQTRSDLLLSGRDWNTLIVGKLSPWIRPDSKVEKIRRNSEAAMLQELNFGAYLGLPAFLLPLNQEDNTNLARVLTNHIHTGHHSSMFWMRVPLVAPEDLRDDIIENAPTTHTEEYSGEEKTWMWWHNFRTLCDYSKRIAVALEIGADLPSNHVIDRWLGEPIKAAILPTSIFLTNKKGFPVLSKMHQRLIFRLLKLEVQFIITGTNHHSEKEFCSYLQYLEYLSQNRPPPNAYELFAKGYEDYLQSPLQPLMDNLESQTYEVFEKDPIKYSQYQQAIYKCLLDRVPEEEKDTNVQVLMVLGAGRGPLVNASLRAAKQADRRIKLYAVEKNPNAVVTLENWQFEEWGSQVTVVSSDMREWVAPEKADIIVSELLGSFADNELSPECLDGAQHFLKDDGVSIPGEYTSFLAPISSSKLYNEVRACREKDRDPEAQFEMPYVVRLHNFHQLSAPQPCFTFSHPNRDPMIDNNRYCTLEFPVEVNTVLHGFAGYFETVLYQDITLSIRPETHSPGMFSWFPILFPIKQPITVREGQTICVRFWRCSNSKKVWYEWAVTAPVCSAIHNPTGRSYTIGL

On to `CNCC(O)CN1CCc2c(cccc2OCc2ccc(-c3nccs3)cc2)C1` (stereo unspecified), for which the IC50 in test [1] is 21 nM.

For `CNC[C@H](O)CN(C)Cc1ccccc1OCc1ccc(-c2nccs2)c(Cl)c1`, the half-inhibitory concentration (IC50) was 942 nM in test [2]; 64 nM in test [3]; 73 nM in test [4]; more than 100000 nM in test [5]; more than 100000 nM in test [6].
